Test results reported in ChEMBL document CHEMBL3885861, “Open TG-GATES”.

Species: Rattus norvegicus
Assay: Open TG-GATES - Regimen: Daily Repeat
Type: toxicity, organism-based, Sprague-Dawley
Design: regimen Daily Repeat, gender Male, age 6 weeks
Conditions: in vivo, iv, route intravenous injection; for KIDNEY_L / KIDNEY_R / KIDNEY_TOTAL: tissue Kidney; for LIVER: tissue Liver; for ALP / ALT / AST / CRE / DBIL / GLC / IP / K / LDH / PL / RALB / TBIL / TC / TG / TP / gamma-GTP / Na / Ca / BUN: tissue Plasma
[1] = 3 mg/kg, 72 h, dose level Middle, time 3 day
[2] = 3 mg/kg, 72 h, tissue Blood, dose level Middle, time 3 day
[3] = 3 mg/kg, […], dose level Middle, time 7 day
[4] = 3 mg/kg, […], dose level Middle, time 14 day
[5] = 3 mg/kg, […], dose level Middle, time 28 day
[6] = 3 mg/kg, […], tissue Blood, dose level Middle, time 7 day
[7] = 3 mg/kg, […], tissue Blood, dose level Middle, time 14 day
[8] = 3 mg/kg, […], tissue Blood, dose level Middle, time 28 day
[9] = 10 mg/kg, 72 h, dose level High, time 3 day
[10] = 10 mg/kg, 72 h, tissue Blood, dose level High, time 3 day
[11] = 10 mg/kg, […], dose level High, time 7 day
[12] = 10 mg/kg, […], dose level High, time 14 day
[13] = 10 mg/kg, […], dose level High, time 28 day
[14] = 10 mg/kg, […], tissue Blood, dose level High, time 7 day
[15] = 10 mg/kg, […], tissue Blood, dose level High, time 14 day
[16] = 10 mg/kg, […], tissue Blood, dose level High, time 28 day

CARBOPLATIN
TERMINAL_BW [1]: 220.6 g | APTT [2]: 24.1 s | Bas [2]: 0% | Eos [2]: 1.2% | Fbg [2]: 324.4 mg/dL | Ht [2]: 41.2% | Lym [2]: 74.6% | MCHC [2]: 32.6% | MCV [2]: 62.7 fL | Mono [2]: 3% | Neu [2]: 20.6% | PT [2]: 16.5 s | Plat [2]: 127.4 x10_4/uL | RBC [2]: 657.4 x10_4/ul | Ret [2]: 4% | WBC [2]: 89.9 x10_2/uL | KIDNEY_L [1]: 0.9 g | KIDNEY_R [1]: 0.9 g | KIDNEY_TOTAL [1]: 1.9 g | LIVER [1]: 9.8 g | ALP [1]: 1530.2 IU/L | ALT [1]: 43 IU/L | AST [1]: 74.8 IU/L | CRE [1]: 0.2 mg/dL | DBIL [1]: 0 mg/dL | GLC [1]: 173.6 mg/dL | IP [1]: 7.1 mg/dL | K [1]: 4.7 meq/L | LDH [1]: 185.8 IU/L | PL [1]: 129.2 mg/dL | RALB [1]: 3.1 g/dL | TBIL [1]: 0.004 mg/dL | TC [1]: 65 mg/dL | TG [1]: 104.6 mg/dL | TP [1]: 5.5 g/dL | gamma-GTP [1]: 1.4 IU/L | TERMINAL_BW [3]: 244.7 g | TERMINAL_BW [4]: 304.5 g | TERMINAL_BW [5]: 349.4 g | APTT [6]: 23.6 s | Bas [6]: 0% | Eos [6]: 0.8% | Fbg [6]: 296.2 mg/dL | MCHC [6]: 32.4% | MCV [6]: 62.2 fL | Mono [6]: 2.4% | Neu [6]: 16.6% | Plat [6]: 130.4 x10_4/uL | RBC [6]: 649.2 x10_4/ul | Ret [6]: 4.6% | WBC [6]: 97.3 x10_2/uL | APTT [7]: 25.4 s | Bas [7]: 0% | Eos [7]: 0.6% | Fbg [7]: 327 mg/dL | Hb [7]: 14 g/dL | Ht [7]: 41.1% | Lym [7]: 86% | MCHC [7]: 34% | MCV [7]: 61.4 fL | Mono [7]: 3.2% | Neu [7]: 9.2% | Plat [7]: 119.2 x10_4/uL | RBC [7]: 670 x10_4/ul | Ret [7]: 2.8% | WBC [7]: 100.3 x10_2/uL | APTT [8]: 26.7 s | Bas [8]: 0% | Eos [8]: 0.8% | Fbg [8]: 332.2 mg/dL | Ht [8]: 42.1% | Lym [8]: 83% | MCH [8]: 19 pg | MCHC [8]: 35.1% | MCV [8]: 54.2 fL | Mono [8]: 2.8% | Plat [8]: 118.9 x10_4/uL | RBC [8]: 777.6 x10_4/ul | Ret [8]: 1.9% | WBC [8]: 87.9 x10_2/uL | KIDNEY_L [3]: 1.1 g | KIDNEY_R [3]: 1.1 g | KIDNEY_TOTAL [3]: 2.1 g | KIDNEY_L [4]: 1.3 g | KIDNEY_R [4]: 1.3 g | KIDNEY_TOTAL [4]: 2.5 g | KIDNEY_L [5]: 1.3 g | KIDNEY_R [5]: 1.3 g | KIDNEY_TOTAL [5]: 2.6 g | LIVER [3]: 11.2 g | LIVER [4]: 13.5 g | LIVER [5]: 13.9 g | ALP [3]: 1757.2 IU/L | ALT [3]: 40.6 IU/L | AST [3]: 82.6 IU/L | CRE [3]: 0.2 mg/dL | DBIL [3]: 0 mg/dL | GLC [3]: 169.6 mg/dL | IP [3]: 7 mg/dL | K [3]: 4.7 meq/L | LDH [3]: 186 IU/L | Na [3]: 140 meq/L | PL [3]: 143 mg/dL | RALB [3]: 3.1 g/dL | TBIL [3]: 0.006 mg/dL | TC [3]: 70.4 mg/dL | TG [3]: 110 mg/dL | TP [3]: 5.6 g/dL | gamma-GTP [3]: 1.6 IU/L | ALP [4]: 1299.2 IU/L | ALT [4]: 41.4 IU/L | AST [4]: 84.2 IU/L | CRE [4]: 0.2 mg/dL | Ca [4]: 11 mg/dL | DBIL [4]: 0 mg/dL | GLC [4]: 170.4 mg/dL | IP [4]: 6.8 mg/dL | K [4]: 4.4 meq/L | LDH [4]: 147 IU/L | PL [4]: 148 mg/dL | RALB [4]: 3.2 g/dL | TBIL [4]: 0.006 mg/dL | TC [4]: 74.2 mg/dL | TG [4]: 131.2 mg/dL | TP [4]: 6 g/dL | gamma-GTP [4]: 3.4 IU/L | ALP [5]: 1001.8 IU/L | ALT [5]: 40.6 IU/L | AST [5]: 78 IU/L | BUN [5]: 18 mg/dL | CRE [5]: 0.2 mg/dL | Ca [5]: 11 mg/dL | DBIL [5]: 0 mg/dL | GLC [5]: 179.6 mg/dL | IP [5]: 6.1 mg/dL | K [5]: 4.2 meq/L | LDH [5]: 131 IU/L | PL [5]: 134.2 mg/dL | RALB [5]: 3.2 g/dL | TBIL [5]: 0.004 mg/dL | TC [5]: 72.4 mg/dL | TG [5]: 96 mg/dL | TP [5]: 6.3 g/dL | gamma-GTP [5]: 2 IU/L | TERMINAL_BW [9]: 210.3 g | APTT [10]: 23.5 s | Bas [10]: 0% | Eos [10]: 1.2% | Fbg [10]: 288 mg/dL | Hb [10]: 13 g/dL | Ht [10]: 39.9% | Lym [10]: 85.8% | MCHC [10]: 32.7% | MCV [10]: 62.8 fL | Mono [10]: 3.2% | Neu [10]: 8.8% | PT [10]: 16.4 s | Plat [10]: 122.5 x10_4/uL | RBC [10]: 635.4 x10_4/ul | Ret [10]: 2.7% | WBC [10]: 75.4 x10_2/uL | KIDNEY_L [9]: 0.9 g | KIDNEY_R [9]: 1 g | KIDNEY_TOTAL [9]: 1.9 g | LIVER [9]: 9.3 g | ALP [9]: 1408.4 IU/L | ALT [9]: 33.8 IU/L | BUN [9]: 16.4 mg/dL | CRE [9]: 0.2 mg/dL | DBIL [9]: 0.002 mg/dL | GLC [9]: 170.4 mg/dL | IP [9]: 7 mg/dL | K [9]: 4.6 meq/L | Na [9]: 140.2 meq/L | PL [9]: 129.6 mg/dL | RALB [9]: 3.1 g/dL | TBIL [9]: 0.008 mg/dL | TC [9]: 63.2 mg/dL | TG [9]: 84.4 mg/dL | TP [9]: 5.5 g/dL | gamma-GTP [9]: 1.4 IU/L | TERMINAL_BW [11]: 215.5 g | TERMINAL_BW [12]: 246.4 g | TERMINAL_BW [13]: 260.5 g | APTT [14]: 27.1 s | Bas [14]: 0% | Eos [14]: 0.8% | Fbg [14]: 285.8 mg/dL | Hb [14]: 13.7 g/dL | Ht [14]: 41.4% | Lym [14]: 83.6% | MCV [14]: 62.3 fL | Mono [14]: 4.8% | Neu [14]: 9.6% | PT [14]: 15.7 s | Plat [14]: 124.5 x10_4/uL | RBC [14]: 665.8 x10_4/ul | Ret [14]: 1.5% | WBC [14]: 46.7 x10_2/uL | APTT [15]: 26.8 s | Bas [15]: 0% | Eos [15]: 0.4% | Fbg [15]: 299.6 mg/dL | Hb [15]: 14.1 g/dL | Lym [15]: 80.8% | MCHC [15]: 33.9% | MCV [15]: 59.3 fL | Mono [15]: 4.6% | Plat [15]: 50.2 x10_4/uL | RBC [15]: 701 x10_4/ul | Ret [15]: 0.8% | WBC [15]: 57.1 x10_2/uL | APTT [16]: 25.4 s | Bas [16]: 0% | Eos [16]: 0% | Fbg [16]: 275.2 mg/dL | Hb [16]: 11.8 g/dL | Ht [16]: 33.8% | Lym [16]: 81% | MCHC [16]: 34.8% | MCV [16]: 55.8 fL | Mono [16]: 3.6% | PT [16]: 15.6 s | Plat [16]: 66.5 x10_4/uL | RBC [16]: 607.8 x10_4/ul | Ret [16]: 3.1% | WBC [16]: 60.4 x10_2/uL | KIDNEY_L [11]: 0.9 g | KIDNEY_R [11]: 1 g | KIDNEY_TOTAL [11]: 1.9 g | KIDNEY_L [12]: 1.1 g | KIDNEY_R [12]: 1.1 g | KIDNEY_TOTAL [12]: 2.2 g | KIDNEY_L [13]: 1.2 g | KIDNEY_R [13]: 1.2 g | KIDNEY_TOTAL [13]: 2.4 g | LIVER [11]: 8.8 g | ALP [11]: 1401.8 IU/L | ALT [11]: 41.4 IU/L | AST [11]: 102 IU/L | CRE [11]: 0.2 mg/dL | DBIL [11]: 0.002 mg/dL | GLC [11]: 170.8 mg/dL | IP [11]: 7.3 mg/dL | K [11]: 4.4 meq/L | Na [11]: 140.4 meq/L | PL [11]: 118.6 mg/dL | RALB [11]: 3.2 g/dL | TBIL [11]: 0.012 mg/dL | TC [11]: 66 mg/dL | TG [11]: 38.2 mg/dL | TP [11]: 6 g/dL | gamma-GTP [11]: 1 IU/L | ALP [12]: 1127 IU/L | ALT [12]: 48 IU/L | AST [12]: 93.2 IU/L | BUN [12]: 16.6 mg/dL | CRE [12]: 0.2 mg/dL | DBIL [12]: 0 mg/dL | GLC [12]: 170.4 mg/dL | IP [12]: 6.6 mg/dL | K [12]: 4.5 meq/L | LDH [12]: 161 IU/L | PL [12]: 139.8 mg/dL | RALB [12]: 3.2 g/dL | TBIL [12]: 0.016 mg/dL | TC [12]: 74.8 mg/dL | TG [12]: 83.4 mg/dL | TP [12]: 5.8 g/dL | gamma-GTP [12]: 1.8 IU/L | ALP [13]: 682.8 IU/L | ALT [13]: 40 IU/L | AST [13]: 97.8 IU/L | BUN [13]: 22 mg/dL | CRE [13]: 0.2 mg/dL | DBIL [13]: 0.016 mg/dL | GLC [13]: 170 mg/dL | IP [13]: 6.2 mg/dL | K [13]: 4.5 meq/L | LDH [13]: 533 IU/L | PL [13]: 127.8 mg/dL | RALB [13]: 3 g/dL | TBIL [13]: 0.052 mg/dL | TC [13]: 78.6 mg/dL | TG [13]: 48.8 mg/dL | TP [13]: 6 g/dL | gamma-GTP [13]: 1.8 IU/L
